Results on 14 compounds are retold here after US5399585A, “Carboxamides and sulfonamides compounds which have useful pharmaceutical utility” (Hoffmann-La Roche Inc., priority 1989, dated 1995).

The target in this assay is T1, fibrinogen receptor of blood platelets, glycoprotein IIb/IIIa (Homo sapiens, UniProt P05106+P08514).
T1 construct: Glycoprotein IIb/IIIa is obtained from Triton X-100 extracts of human blood platelets; from tissue; host or cells: human blood platelets (Triton X-100 extract)
T1 sequence (P08514 32-887 limits assumed): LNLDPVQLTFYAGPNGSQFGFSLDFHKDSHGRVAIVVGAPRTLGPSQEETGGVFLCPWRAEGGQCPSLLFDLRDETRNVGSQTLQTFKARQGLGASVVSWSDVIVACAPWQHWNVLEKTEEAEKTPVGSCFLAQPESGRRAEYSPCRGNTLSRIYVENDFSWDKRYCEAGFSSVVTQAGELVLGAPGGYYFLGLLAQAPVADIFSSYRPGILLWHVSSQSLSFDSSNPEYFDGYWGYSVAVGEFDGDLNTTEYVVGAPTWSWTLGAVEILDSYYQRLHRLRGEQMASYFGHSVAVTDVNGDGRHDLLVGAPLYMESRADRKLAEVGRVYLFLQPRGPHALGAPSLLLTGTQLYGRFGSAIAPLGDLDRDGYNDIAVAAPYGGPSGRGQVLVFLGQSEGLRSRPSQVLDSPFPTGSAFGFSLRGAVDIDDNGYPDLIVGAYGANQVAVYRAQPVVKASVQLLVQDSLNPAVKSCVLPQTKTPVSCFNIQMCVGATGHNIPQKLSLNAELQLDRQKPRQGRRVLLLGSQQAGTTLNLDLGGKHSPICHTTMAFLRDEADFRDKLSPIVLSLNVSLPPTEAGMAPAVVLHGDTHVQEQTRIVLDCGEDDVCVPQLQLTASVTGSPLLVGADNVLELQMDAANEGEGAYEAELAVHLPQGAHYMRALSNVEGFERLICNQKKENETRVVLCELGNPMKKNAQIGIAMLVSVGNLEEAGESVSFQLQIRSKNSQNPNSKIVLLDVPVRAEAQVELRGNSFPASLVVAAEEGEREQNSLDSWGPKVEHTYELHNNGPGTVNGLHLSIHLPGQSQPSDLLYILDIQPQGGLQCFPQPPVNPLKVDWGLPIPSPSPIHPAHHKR
T1 sequence (P08514 891-1039 limits assumed): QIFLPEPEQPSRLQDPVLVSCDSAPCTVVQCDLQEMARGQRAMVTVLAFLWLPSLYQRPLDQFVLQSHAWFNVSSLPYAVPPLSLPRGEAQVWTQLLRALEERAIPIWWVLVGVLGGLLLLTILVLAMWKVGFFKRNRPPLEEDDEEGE
T1 sequence (P05106 27-788): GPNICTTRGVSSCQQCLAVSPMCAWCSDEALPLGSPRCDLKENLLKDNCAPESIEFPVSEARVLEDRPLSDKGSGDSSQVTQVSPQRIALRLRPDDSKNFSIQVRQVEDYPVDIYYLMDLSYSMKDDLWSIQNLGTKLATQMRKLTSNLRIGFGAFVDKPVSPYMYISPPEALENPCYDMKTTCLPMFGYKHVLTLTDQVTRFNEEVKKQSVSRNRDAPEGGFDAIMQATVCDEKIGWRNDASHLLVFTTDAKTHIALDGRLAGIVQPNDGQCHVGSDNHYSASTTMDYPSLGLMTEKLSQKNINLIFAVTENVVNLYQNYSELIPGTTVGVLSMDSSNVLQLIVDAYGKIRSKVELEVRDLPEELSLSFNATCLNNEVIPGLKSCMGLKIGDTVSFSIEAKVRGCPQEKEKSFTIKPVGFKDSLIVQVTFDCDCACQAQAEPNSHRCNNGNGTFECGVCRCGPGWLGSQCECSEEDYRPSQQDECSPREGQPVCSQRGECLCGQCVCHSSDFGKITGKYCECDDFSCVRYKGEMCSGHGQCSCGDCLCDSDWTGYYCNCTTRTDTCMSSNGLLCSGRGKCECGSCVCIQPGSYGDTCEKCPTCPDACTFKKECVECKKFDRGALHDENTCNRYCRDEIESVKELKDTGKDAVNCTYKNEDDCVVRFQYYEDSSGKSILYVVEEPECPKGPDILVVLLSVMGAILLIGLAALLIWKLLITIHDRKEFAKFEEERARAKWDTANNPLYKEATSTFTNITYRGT
As to the kind of experiment: Inhibition of fibrinogen binding to immobilized glycoprotein IIb/IIIa (ELISA). To be noted: purified glycoprotein IIb/IIIa from human blood platelets bound to microtitre plates, read-out: IC50 (concentration of test substance required to inhibit the binding of fibrinogen to the immobilized receptor by 50%). The method, then:
Glycoprotein IIb/IIIa is obtained from Triton X-100 extracts of human blood platelets and purified by lectin affinity chromatography (Analytical Biochemistry 151, 1985, 169-177) and chromatography on an Arg-Gly-Asp-Ser affinity column (Science 231, 1986, 1559-62). The receptor protein obtained in this way is bound to microtitre plates. The specific binding of fibrinogen to the immobilized receptor is determined using an ELISA system (enzyme-linked immunosorbent assay). The IC50 values hereinafter correspond to that concentration of the test substance required to inhibit the binding of fibrinogen to the immobilized receptor by 50%: […]

With `C[C@H](Cc1ccc([C@H](C)CC(=O)O)s1)NC(=O)c1ccc(C(=N)N)cc1` (racemic) [Example 40, (RS)-5-[(RS)-2-(p-amidinobenzamido)propyl]-β-methyl-2-thiophene-propionic acid], the IC50 was 40 nM. Turning to `N=C(N)c1ccc(C(=O)N[C@@H](CO)Cc2ccc(OCC(=O)O)cc2)cc1` [Example 81, p-[(R)-2-(p-amidinobenzamido)-3-hydroxypropyl)phenoxyacetic acid], the IC50 stood at 80 nM. For `N=C(N)c1ccc(S(=O)(=O)NCCc2ccc(OCC(=O)O)cc2)cc1` [Example 12, p-[2-(p-amidinobenzenesulphonamido)ethyl]phenoxyacetic acid], the IC50 amounted to 100 nM. In the case of `N=C(N)c1ccc(S(=O)(=O)N(CCc2ccc(OCC(=O)O)cc2)Cc2ccccc2)cc1` [Example 18, p-[2-(p-amidino-N-benzylphenylsulphonamido)ethyl]phenoxyacetic acid], the IC50 turned out to be 720 nM.

For `N=C(N)c1ccc(S(=O)(=O)NCCCc2ccc(CC(=O)O)cc2)cc1` [Example 46, p-[3-(p-amidinophenylsulphonamido)propyl]phenylacetic acid], the IC50 worked out at 300 nM. Under `COC(=O)COc1ccc(CCNC(=O)c2ccc(C(=N)N)cc2)cc1` [Example 1, Methyl p-[2-(p-amidinobenzamido)ethyl]phenoxyacetate] stands 370 nM; under `N=C(N)c1ccc(C(=O)NCCc2ccc(OCC(=O)O)cc2)cc1` [Example 2, p-[2-(amidinobenzamido)ethyl]phenoxyaceticacid], 40 nM; under `N=C(N)c1ccc(C(=O)NCCc2ccc(OCC(=O)O)cc2)cn1` [Example 48], 30 nM.

`CC(CC(=O)O)c1ccc(CCNS(=O)(=O)c2ccc(C(=N)N)cc2)cc1` (stereo not drawn) [Example 36, p-[2-(p-amidinophenylsulphonamido)ethyl]-β-methyl-hydrocinnamic acid]: the IC50 came to 100 nM. For the compound `N=C(N)c1ccc(CC(=O)NCc2ccc(OCC(=O)O)cc2)cc1` [Example 78, p-[2-(p-amidinophenyl)acetamido]-p-tolyloxyacetic acid], the IC50 was 970 nM.

Turning to `N=C(N)c1ccc(S(=O)(=O)NCC(O)c2ccc(OCC(=O)O)cc2)cc1` (centres unmarked) [Example 20, p-[2-(p-amidinobenzenesulphonamido)-1-hydroxyethyl]phenoxyacetic acid], the IC50 turned out to be 470 nM. Regarding `N=C(N)c1ccc(S(=O)(=O)NCCOc2ccc(CC(=O)O)cc2)cc1` [Example 10, p-[2-(p-amidinophenylsulphonamido)ethoxy]phenylacetic acid], the IC50 stood at 640 nM. Under `CN(CC(=O)c1ccc(OCC(=O)O)c(OCC(=O)O)c1)C(=O)c1ccc(C(=N)N)cc1` [Example 83, [4-(p-amidino-N-methylbenzamido)acetyl-o-phenylenedioxy]diacetic acid] stands 0.07 nM. Under `COC(=O)COc1ccc(C(=O)CN(C)C(=O)c2ccc(C(=N)N)cc2)cc1OCC(=O)OC` [Example 82, dimethyl [4-(p-amidino-N-methylbenzamido)acetyl-o-phenylenedioxy]diacetate] stands 8.1 nM.
